Results as given in patent publication US12447242B2, “Hemostatic devices and methods of use” (MEDTRONIC INC., priority 2016, dated 2025).

Legend:
myofibroblast formation = conditions: Ajmal et al. (2003); cited from earlier work
[1] = in vitro elution of rifampin and minocycline from p22-27.5 polymers with TXA in release media (Example 15); assay type: physicochemical; conditions: PBS pH 7.4 without or with TXA (0.05 mg/mL, 5 mg/mL) in the release media, over 25 hours
[2] = stability of rifampin and minocycline in PBS with and without tranexamic acid (Example 14); assay type: physicochemical
[3] = time to reach plasma concentrations; assay type: in vivo; conditions: given preoperatively
blood [4] = experiment: time to induce blood clotting in vitro, different hemostatic agents (Example 18); assay type: biochemical; conditions: 1.2 mg of TXA alone
Experimental: Tests were conducted to compare the time required for different hemostatic agents to induce blood clotting in vitro versus the time required to induce blood clotting in vitro when no hemostatic agent is administered. In particular, the time required to induce blood clotting was plotted for blood alone, TYRX, Surgicel, TYRX with 1.6 mg of TXA, 1.2 mg of TXA alone, and TYRX with 200 mg of TXA. In this example, TYRX refers to a Glycoprene mesh that is coated with P22-27.5 (a polymer in the P22-X family) containing Rifampin and Minocycline.

blood [5] = experiment: time to induce blood clotting in vitro in the presence of TYRX (Example 17); assay type: biochemical; parameters: dose or concentration left out as unconfirmed; conditions: higher amounts of TXA
Experimental: Tests were conducted to compare the time required to induce blood clotting in vitro when different amounts of hemostatic agent is administered in the presence of TYRX (degradable mesh coated with P22-27.5 containing rifampin and minocycline), as shown in FIG. 24.

In the case of `O=S(=O)([O-])CCS.[Na+]` [MESNA, sodium 2-mercaptoethane sulfonate], the myofibroblast formation (myofibroblast formation) is listed as “diminish myofibroblast formation”.

For `CO[C@H]1/C=C/O[C@@]2(C)Oc3c(C)c(O)c4c(O)c(c(/C=N/N5CCN(C)CC5)c(O)c4c3C2=O)NC(=O)/C(C)=C\C=C\[C@H](C)[C@H](O)[C@@H](C)[C@@H](O)[C@@H](C)[C@H](OC(C)=O)[C@@H]1C` [rifampin], the “elution rate from p22-27.5 polymers” value [1] was “not affected” and the “percentage area of rifampin, mixtures with versus without tranexamic acid” value ([2]; rifampin and minocycline in PBS, regardless of the temperature (RT or 37° C.)) was “substantially the same”.

For `NC[C@H]1CC[C@H](C(=O)O)CC1` [tranexamic acid], the “time to reach plasma concentrations” value [3] was 5 to 15 min, the “time to induce blood clotting in vitro” value (blood [4]) was “about 19 minutes” and the clotting time (blood [5]) was “increased”. The “effect on the stability of rifampin and minocycline” value ([2]; PBS, RT and 37° C.) was “does not negatively affect”.
